For this assay, the system named is Oxytricha Nova quadruplex (GGGGTTTTGGGG)2 (DNA, G4) GGGGTTTTGGGG
Description: ITC. The conditions noted are these: 10 mM sodium cacodylate, 0.5 mM EDTA, pH 7.0, 20 °C.

Each structure is given as a SMILES string.

Turning to `NC[C@@H]1O[C@H](O[C@H]2[C@@H](O)[C@H](O[C@@H]3[C@@H](O)[C@H](N)C[C@H](N)[C@H]3O[C@H]3O[C@H](CN)[C@@H](O)[C@H](O)[C@H]3N)O[C@@H]2CO)[C@H](N)[C@@H](O)[C@@H]1O`, the Ka (K+ 90 mM) is 1.15±0.08 × 10^5 M^−1 and the Ka (Na+ 100 mM) is reported as 1.03±0.50 × 10^5 M^−1.

As to `NC[C@@H]1O[C@H](O[C@H]2[C@@H](O)[C@H](O[C@@H]3[C@@H](O)[C@H](N)C[C@H](N)[C@H]3O[C@H]3O[C@H](CO)[C@@H](O)[C@H](O)[C@H]3N)O[C@@H]2CO)[C@H](N)[C@@H](O)[C@@H]1O`, the Ka (K+ 90 mM) is given as 0.45±0.01 × 10^5 M^−1.

Source of the values: paper PMC3641841 (2010).
